Test results taken from paper PMC6349357, “Computational and experimental analysis of bioactive peptide linear motifs in the integrin adhesome” (PLoS ONE, 2019).

Legend:
resting platelets = assay: Platelet aggregation induced by peptide in resting washed platelets (activation); assay type: cell-based, human (healthy volunteers); settings: for Activation, donor 20 08 13: replicate 20_08_13; for Activation, donor 22_08_13_DONOR1: replicate 22_08_13_DONOR1; for Activation, donor 22_08_13_DONOR2: replicate 22_08_13_DONOR2
Method: (§1) Blood was drawn from healthy volunteers into a syringe containing a final volume of 15% Acid Citrate Dextrose (ACD). The blood/ACD mixture was then aliquoted into 15 ml Cellstar tubes, at volumes of 5ml per tube, and centrifuged at 150 rcf for 10 minutes to obtain platelet rich plasma (PRP). PRP was then transferred to a 50ml tube using a pipette. The pH was then adjusted to 6.5. Prostaglandin (PGE1) was then added with a final concentration of 1μM. The PRP was then centrifuged at 750 rcf. After centrifugation the platelet poor plasma (PPP) was discarded and the pellet was resuspended in buffer A (6 mM dextrose, 130 mM NaCl, 9 mM NaHCO3, 10 mM sodium citrate, 10 mM Tris base, 3 mM KCl, 0.81 mM KH2PO4 and 0.9 mM MgCl26H2O, pH 7.4). A platelet concentration of 3x10^5/μl or 1x10^6/μl was obtained by dilution depending on the experiment in which they were used. Platelets were left to rest for 45 minutes and supplemented with 1.8mM calcium chloride prior to use.
(§2) A platelet concentration of 3x10^5 /μl was used when performing standard aggregations and a concentration of 1x10^6 /μl was used for sample preparation for western blot analysis. The extent of platelet aggregation was measured by quantifying the optical density of the samples using the Bio-Data PAP-8 aggregometer (platelet aggregation profiler, Horsham, PA, USA). A temperature of 37°C was maintained and samples were stirred using magnets spinning at 1100 rpm. 200 μl of washed platelets was added to each aggregation tube. Different volumes of buffer, peptide and TRAP were added to achieve the desired concentrations. Peptide/buffer was added to each well after two minutes. TRAP, with a final concentration depending on the experiment, was added 6 minutes later and data was collected for an additional 7 minutes.

TRAP-activated platelets = assay: Inhibition of TRAP-induced platelet aggregation after pre-incubation with peptide; assay type: cell-based, human (healthy volunteers); settings: for Summary of effects of SDC4-derived palmitylated peptides and scrambled controls, 20μM: S2 Table B / S2 Fig, activation of resting platelets and inhibition of aggregation induced by 4 μM TRAP, in words; for Inhibition, donor 20_08_13: replicate 20_08_13
Method: as §1, §2

[1] = SDC4 peptides and controls, 20 μM, unit assumed
[2] = SDC4 peptides and controls, 20 μM
[3] = replicate 22_08_13_DONOR1, peptide 20 μM, TRAP 4 μM
[4] = replicate 22_08_13_DONOR2, peptide 20 μM, TRAP 4 μM

| Substance | Activation, donor 20 08 13 (resting platelets; [1]) | Activation, donor 22_08_13_DONOR1 (resting platelets; [2]) | Activation, donor 22_08_13_DONOR2 (resting platelets; [2]) | Summary of effects of SDC4-derived palmitylated peptides and scrambled controls, 20μM (TRAP-activated platelets) | Inhibition, donor 20_08_13 (TRAP-activated platelets; peptide 20 μM, TRAP 4 μM) | Platelet aggregation remaining after TRAP (low = inhibition) (TRAP-activated platelets; [3]) | Platelet aggregation remaining after TRAP (low = inhibition) (TRAP-activated platelets; [4]) | Activation, 5μM (resting platelets; S3 Table, peptide 5 μM, n=3, unit assumed) | Activation, 20μM (resting platelets; S3 Table, peptide 20 μM, n=3, unit assumed) | Platelet aggregation remaining after TRAP (low = inhibition) (TRAP-activated platelets; S3 Table, peptide 5 μM, aggregation after TRAP, n=3) | Platelet aggregation remaining after TRAP (low = inhibition) (TRAP-activated platelets; S3 Table, peptide 20 μM, aggregation after TRAP, n=3) | Activation, donor 14 06 13 (resting platelets; replicate 14_06_13, SDC4 peptides and controls, 20 μM, unit assumed) | Activation, donor 18_06_13 (resting platelets; replicate 18_06_13, SDC4 peptides and controls, 20 μM, in % (unit assumed)) | Activation, donor 20_06_13 (resting platelets; replicate 20_06_13, SDC4 peptides and controls, 20 μM, in % (unit assumed)) | Inhibition, donor 14_06_13 (TRAP-activated platelets; replicate 14_06_13, peptide 20 μM, TRAP 4 μM) | Inhibition, donor 18_06_13 (TRAP-activated platelets; replicate 18_06_13, peptide 20 μM, TRAP 4 μM) | Inhibition, donor 20_06_13 (TRAP-activated platelets; replicate 20_06_13, peptide 20 μM, TRAP 4 μM) |
| --- | --- | --- | --- | --- | --- | --- | --- | --- | --- | --- | --- | --- | --- | --- | --- | --- | --- |
| IGLPKKKYK [pal-SDC4_middle Control 2, scrambled control of pal-SDC4_middle, reference compound] | 12% | 17 | 12 | Inhibitor and mild activator | 40 | 19 | 46 |  |  |  |  |  |  |  |  |  |  |
| pal-KVGFFKR-LGKKPIYKK [B18p ITGA2b-JM U SDC4-middle, palmitylated chimeric peptide] |  |  |  |  |  |  |  | 61% | 13% | 65 | 27 |  |  |  |  |  |  |
| NTYAFKAKEP [pal-KK-SDC4_tail Control 1, scrambled control of pal-KK-SDC4_tail, reference compound] | 3% | 1 | 3 | No effect | 70 | 76 | 74 |  |  |  |  |  |  |  |  |  |  |
| KIKGPKLKY [pal-SDC4_middle Control 1, scrambled control of pal-SDC4_middle, reference compound] | 5% | 6 | 5 | Inhibitor and mild activator | 8 | 5 | 10 |  |  |  |  | 4% | 4 | 0 | 8 | 9 | 2 |
